{"source": "ChEMBL document CHEMBL1201862", "about": "“PubChem BioAssay data set” (2004)", "key": {"Nonstructural protein 1": {"biological_target": "Nonstructural protein 1 (Influenza A virus, UniProt Q194T2)", "sequence (Q194T2 whole entry)": "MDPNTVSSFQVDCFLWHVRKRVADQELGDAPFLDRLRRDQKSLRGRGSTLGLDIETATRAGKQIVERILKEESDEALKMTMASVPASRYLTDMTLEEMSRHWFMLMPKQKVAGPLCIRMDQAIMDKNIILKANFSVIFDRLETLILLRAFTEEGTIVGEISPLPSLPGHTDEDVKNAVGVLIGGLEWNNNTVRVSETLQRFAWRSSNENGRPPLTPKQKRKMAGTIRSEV", "assay_type": "functional, Influenza A virus (A/California/07/2009(H1N1))"}, "[1]": {"biological_target": "T1, Matrix metalloproteinase-14 (Homo sapiens, UniProt P50281)", "experiment": "Dose Response confirmation of uHTS hits for a small molecule inhibitors of MT1-MMP activation in a fluorescence assay set 1.", "assay_type": "functional"}, "[2]": {"experiment": "Shn3 3'UTR reporter inhibitors, dose response, cell-based, Clone20 osteoblasts, firefly luciferase, cherry-picked (AID 624132)", "assay_type": "functional"}, "[3]": {"experiment": "control 3'UTR Renilla luciferase suppression, dose response, counter-screen for Shn3 inhibitor project, cell-based, Clone20-Shn3RL, cherry-picked (AID 624133)", "assay_type": "functional"}, "Protein Wnt-3a": {"biological_target": "Protein Wnt-3a (Mus musculus, UniProt P27467)", "sequence (P27467 whole entry)": "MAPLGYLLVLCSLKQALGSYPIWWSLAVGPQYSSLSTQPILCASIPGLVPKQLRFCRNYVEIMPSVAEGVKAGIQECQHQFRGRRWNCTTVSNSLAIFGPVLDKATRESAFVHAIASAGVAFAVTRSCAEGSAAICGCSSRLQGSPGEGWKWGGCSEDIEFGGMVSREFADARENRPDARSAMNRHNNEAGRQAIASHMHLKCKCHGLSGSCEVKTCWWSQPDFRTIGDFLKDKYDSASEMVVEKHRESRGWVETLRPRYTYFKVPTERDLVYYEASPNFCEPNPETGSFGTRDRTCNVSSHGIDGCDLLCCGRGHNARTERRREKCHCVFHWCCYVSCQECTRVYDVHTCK", "experiment": "Wnt3a-driven reporter signaling inhibition, dose response, selectivity assay for Gli-SUFU antagonist project, Wnt-LIGHT cells, luminescence (AID 651570);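 further: Wnt-LIGHT reporter cells stimulated with conditioned medium from Wnt3a-producing cells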", "assay_type": "functional", "conditions": "read-out: IC50_Mean"}, "INS1": {"tested_on": "INS1", "experiment": "beta cell apoptosis inhibitors, cytokine rescue, dose response, luminescence, retest (AID 449756);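 further: cell death triggered by IL-1 beta plus TNF-alpha plus IFN-gamma mixture; protective hits raise ATP signal compared with cytokine alone wells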", "assay_type": "functional, cell-based", "conditions": "Rattus norvegicus"}, "[4]": {"experiment": "HepG2 cell cytotoxicity, dose response, cytotoxicity control for Shn3 inhibitor project, CellTiter-Glo, cherry-picked (AID 624134)", "assay_type": "functional, cell-based"}, "[5]": {"biological_target": "COUP transcription factor 2 (Homo sapiens, UniProt P24468)", "sequence (P24468 whole entry)": "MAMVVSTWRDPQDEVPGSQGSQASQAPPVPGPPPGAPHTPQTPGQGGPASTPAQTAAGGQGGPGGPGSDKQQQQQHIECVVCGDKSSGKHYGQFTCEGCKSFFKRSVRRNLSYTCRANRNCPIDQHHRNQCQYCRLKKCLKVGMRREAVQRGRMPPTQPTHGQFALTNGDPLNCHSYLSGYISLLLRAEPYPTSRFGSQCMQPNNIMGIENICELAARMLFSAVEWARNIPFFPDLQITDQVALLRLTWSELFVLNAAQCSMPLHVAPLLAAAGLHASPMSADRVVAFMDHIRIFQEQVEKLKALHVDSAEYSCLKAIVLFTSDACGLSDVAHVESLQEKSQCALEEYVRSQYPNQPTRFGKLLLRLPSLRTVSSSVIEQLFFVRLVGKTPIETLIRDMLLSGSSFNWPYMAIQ", "experiment": "Luminescence-based cell-based high throughput dose response assay to identify inhibitors of COUP-TFII (NR2F2).", "assay_type": "functional"}, "[6]": {"biological_target": "Fructose-bisphosphate aldolase (Mycobacterium tuberculosis, UniProt P9WQA3)", "sequence (P9WQA3 whole entry)": "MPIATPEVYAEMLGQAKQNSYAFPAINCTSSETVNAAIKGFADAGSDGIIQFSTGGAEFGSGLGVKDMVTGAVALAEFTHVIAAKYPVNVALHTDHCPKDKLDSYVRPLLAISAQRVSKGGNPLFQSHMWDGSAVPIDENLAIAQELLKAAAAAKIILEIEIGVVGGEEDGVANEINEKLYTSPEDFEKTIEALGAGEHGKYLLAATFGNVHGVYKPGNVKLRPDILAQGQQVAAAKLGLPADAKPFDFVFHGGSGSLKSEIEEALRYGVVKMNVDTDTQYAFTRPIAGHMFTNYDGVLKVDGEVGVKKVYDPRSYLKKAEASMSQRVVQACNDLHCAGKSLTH", "experiment": "Fluorescence-based biochemical high throughput dose response assay for inhibitors of the fructose-bisphosphate aldolase (FBA) of M. tuberculosis.", "assay_type": "functional"}, "[7]": {"experiment": "Luminescence Cell-Based Dose Response HTS to Identify Activators of Luciferase Translation or Activity in H4 […] Cells. [Related pubchem assays: 1829 (Project Summary), 1814 (Primary HTS)]", "assay_type": "functional"}, "H4": {"tested_on": "H4", "experiment": "Luminescence Cell-Based Dose Response HTS to Identify Activators of 5'UTR Stem-Loop Driven Prion Protein mRNA Translation in H4 Neuroglioblastoma Cells. [Related pubchem assays: 1829 (Project Summary), 1814 (Primary HTS)]", "assay_type": "functional", "conditions": "Homo sapiens"}, "[8]": {"experiment": "Luminescence Cell-Based Dose Response to Identify Activators of 5'UTR Stem-Loop Driven Prion Protein mRNA Translation in H4-C Neuroglioblastoma Cells. [Related pubchem assays: 1829 (Project Summary), 1814 (Primary HTS)]", "assay_type": "functional"}, "[9]": {"biological_target": "Peroxisome proliferator-activated receptor gamma/Nuclear receptor corepressor 2 (Homo sapiens, UniProt P37231+Q9Y618)", "experiment": "Counterscreen for NR2E3 inverse agonists: TR-FRET-based biochemical high throughput dose response assay to identify inverse agonists of the interaction between peroxisome proliferator-activated receptor gamma (PPARg) and nuclear receptor co-repressor 2 (NCOR2).", "assay_type": "functional"}, "[10]": {"experiment": "Luminescence Cell-Based Dose Confirmation to Identify Activators of 5'UTR Stem-Loop Driven Alpha-Synuclein mRNA Translation in H4 Neuroglioblastoma Cells. [Related pubchem assays: 1829 (Project Summary), 1814 (Primary HTS)]", "assay_type": "functional"}, "[11]": {"biological_target": "Photoreceptor-specific nuclear receptor (Homo sapiens, UniProt Q9Y5X4)", "sequence (Q9Y5X4 whole entry)": "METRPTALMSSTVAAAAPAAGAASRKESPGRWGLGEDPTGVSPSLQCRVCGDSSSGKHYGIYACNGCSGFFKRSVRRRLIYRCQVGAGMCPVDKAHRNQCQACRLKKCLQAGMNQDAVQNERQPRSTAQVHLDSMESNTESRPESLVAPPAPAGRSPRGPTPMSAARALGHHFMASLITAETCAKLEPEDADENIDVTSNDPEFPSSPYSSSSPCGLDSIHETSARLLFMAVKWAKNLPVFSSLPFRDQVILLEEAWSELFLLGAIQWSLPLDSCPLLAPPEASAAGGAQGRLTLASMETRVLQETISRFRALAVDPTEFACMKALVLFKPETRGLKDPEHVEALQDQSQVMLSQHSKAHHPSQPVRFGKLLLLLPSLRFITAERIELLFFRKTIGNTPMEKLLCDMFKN", "experiment": "NR2E3 inverse agonists, dose response, biochemical, TR-FRET (AID 463256)", "assay_type": "functional"}, "[12]": {"experiment": "Luminescence Cell-Based Dose Response to Identify Activators of Luciferase Translation or Activity in H4-C Neuroglioblastoma Cells. [Related pubchem assays: 1829 (Project Summary), 1814 (Primary HTS)]", "assay_type": "functional"}, "[13]": {"experiment": "EDANS-DABCYL fluorescence interference, concentration series, dose response, artefact control for kallikrein-7 zymogen activator project, biochemical, fluorescence intensity, triplicate (AID 720493)"}, "Kallikrein-7": {"biological_target": "Kallikrein-7 (Homo sapiens, UniProt P49862)", "sequence (P49862 whole entry)": "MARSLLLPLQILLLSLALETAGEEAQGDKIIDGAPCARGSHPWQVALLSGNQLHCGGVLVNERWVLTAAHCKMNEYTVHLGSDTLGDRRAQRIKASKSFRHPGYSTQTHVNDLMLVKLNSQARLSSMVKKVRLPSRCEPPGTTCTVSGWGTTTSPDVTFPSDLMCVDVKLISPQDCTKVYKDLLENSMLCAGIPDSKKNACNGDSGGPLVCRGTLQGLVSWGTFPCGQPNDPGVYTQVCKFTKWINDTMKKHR", "experiment": "Fluorescence Intensity-based biochemical primary high throughput dose response assay to identify activators of kallikrein-7 (K7) zymogen."}, "[14]": {"biological_target": "Endoplasmic reticulum aminopeptidase 1 (Homo sapiens, UniProt Q9NZ08)", "sequence (Q9NZ08 whole entry)": "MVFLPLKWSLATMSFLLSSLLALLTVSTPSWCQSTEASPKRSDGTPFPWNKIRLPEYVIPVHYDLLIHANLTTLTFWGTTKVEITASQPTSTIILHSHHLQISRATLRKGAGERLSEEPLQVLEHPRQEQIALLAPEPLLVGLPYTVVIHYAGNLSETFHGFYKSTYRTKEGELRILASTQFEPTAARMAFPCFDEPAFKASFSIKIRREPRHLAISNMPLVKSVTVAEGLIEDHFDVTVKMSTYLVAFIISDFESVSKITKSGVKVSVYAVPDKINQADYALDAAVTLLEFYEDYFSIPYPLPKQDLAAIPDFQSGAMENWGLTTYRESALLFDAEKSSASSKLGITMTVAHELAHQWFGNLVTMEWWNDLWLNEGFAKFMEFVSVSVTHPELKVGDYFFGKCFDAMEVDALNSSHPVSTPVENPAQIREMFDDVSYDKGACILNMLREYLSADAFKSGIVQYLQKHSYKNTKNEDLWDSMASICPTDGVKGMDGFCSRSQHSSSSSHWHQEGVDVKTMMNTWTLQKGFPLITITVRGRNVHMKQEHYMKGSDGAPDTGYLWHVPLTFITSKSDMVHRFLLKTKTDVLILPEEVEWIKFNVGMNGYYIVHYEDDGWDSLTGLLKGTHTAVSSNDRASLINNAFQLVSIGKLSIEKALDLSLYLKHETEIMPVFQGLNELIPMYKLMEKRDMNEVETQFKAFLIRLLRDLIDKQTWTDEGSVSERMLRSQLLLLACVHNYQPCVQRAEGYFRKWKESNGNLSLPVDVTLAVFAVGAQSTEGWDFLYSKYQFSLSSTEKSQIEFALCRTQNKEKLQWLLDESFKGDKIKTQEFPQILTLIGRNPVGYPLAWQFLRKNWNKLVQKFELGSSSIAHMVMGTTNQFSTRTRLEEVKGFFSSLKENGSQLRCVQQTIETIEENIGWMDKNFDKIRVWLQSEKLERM", "experiment": "ERAP1 aminopeptidase inhibitors, dose response, biochemical, cherry-pick, set 2, plate reader (AID 743314)"}, "[15]": {"experiment": "HepG2 cell cytotoxicity, dose response, cytotoxicity control, ATP luminescence, cherry-pick, activator set 2 (AID 1053143)", "assay_type": "functional, cell-based"}, "[16]": {"biological_target": "T1, Matrix metalloproteinase-14", "experiment": "Dose Response confirmation of uHTS hits for a small molecule inhibitors of MT1-MMP activation in a fluorescence assay set 2.", "assay_type": "functional"}, "Paired box protein Pax-8": {"biological_target": "Paired box protein Pax-8 (Homo sapiens, UniProt Q06710)", "sequence (Q06710 whole entry)": "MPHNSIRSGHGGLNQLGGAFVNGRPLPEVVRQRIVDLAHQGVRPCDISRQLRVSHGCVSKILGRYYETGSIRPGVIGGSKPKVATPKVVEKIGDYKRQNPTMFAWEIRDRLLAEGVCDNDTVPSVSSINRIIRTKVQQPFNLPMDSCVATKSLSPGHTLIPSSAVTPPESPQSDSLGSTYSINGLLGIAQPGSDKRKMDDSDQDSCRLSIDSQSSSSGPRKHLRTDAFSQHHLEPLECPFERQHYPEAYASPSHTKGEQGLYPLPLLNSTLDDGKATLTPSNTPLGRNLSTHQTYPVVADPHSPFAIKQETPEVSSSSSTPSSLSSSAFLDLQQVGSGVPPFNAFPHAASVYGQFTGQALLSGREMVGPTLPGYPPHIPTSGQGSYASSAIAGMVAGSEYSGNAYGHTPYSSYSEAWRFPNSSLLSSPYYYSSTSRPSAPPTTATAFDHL", "experiment": "inhibitors of PAX8-driven TPO luciferase reporter, dose response, RMG-I cells, cherry-pick (AID 687027);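 further: luciferase reporter driven by Pax8 target thyroperoxidase promoter measured by SteadyGlo luminescence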", "assay_type": "functional, cell-based"}, "A549": {"tested_on": "A549", "experiment": "A549 cell toxicity, dose response, cytotoxicity control, plate reader, cherry-pick samples (AID 687028)", "assay_type": "functional, cell-based", "conditions": "Homo sapiens"}, "Vero": {"tested_on": "Vero", "experiment": "Vero cell toxicity, dose response, cytotoxicity control, plate reader, cherry-pick samples (AID 687020)", "assay_type": "functional, cell-based", "conditions": "Chlorocebus sabaeus"}, "BHK-21": {"tested_on": "BHK-21", "experiment": "BHK-21 cell toxicity, dose response, cytotoxicity control, plate reader, cherry-pick samples (AID 687030)", "assay_type": "functional, cell-based", "conditions": "Mesocricetus auratus"}, "[17]": {"experiment": "inhibitors of LMP1-driven NF-kB reporter, dose response, cell-based, EBV LMP1, luciferase, dry powder, set 2 (AID 624361)", "assay_type": "functional"}, "[18]": {"experiment": "LMP1-driven NF-kB reporter inhibition, dose response, cell-based, luciferase reporter, luminescence, dry powder, set 2 (AID 624376)", "assay_type": "functional"}, "[19]": {"experiment": "HEK293 Cytotoxicity Assay Measured in Cell-Based System Using Plate Reader - 7071-01_Inhibitor_Dose_CherryPick_Activity_Set2.", "assay_type": "functional"}, "HeLa": {"tested_on": "HeLa", "experiment": "HeLa cell cytotoxicity, dose response, cytotoxicity control, ATP luminescence, cherry-pick samples (AID 687004)", "assay_type": "functional, cell-based", "conditions": "Homo sapiens"}, "HEK293": {"tested_on": "HEK293", "experiment": "HEK293T cell cytotoxicity, dose response, cytotoxicity control, ATP luminescence, cherry-pick samples (AID 687005);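 further: cells exposed to compound for 48 hours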", "assay_type": "functional, cell-based", "conditions": "Homo sapiens"}}, "note": "Activity calls are given as the source filed them."}
{"smiles": "Cc1cc(N(CCO)CCO)ccc1N=Nc1cc(F)ccc1F", "values": [{"measurement": "IC50", "setting": "Nonstructural protein 1", "value": "19.2 µM (active)"}, {"measurement": "IC50", "setting": "[1]", "value": "31.6 µM (inactive)"}]}
{"smiles": "Cc1cccn2c(=O)c3cc(C(N)=S)c(=N)n(CCCOC(C)C)c3nc12", "values": [{"measurement": "AC50", "setting": "cells", "value": "0.626 µM (active)"}]}
{"smiles": "O=C(c1cc(COc2cccc3cnccc23)on1)N1CCCC(CCCO)C1", "note": "(configuration not stated)", "values": [{"measurement": "AC50", "setting": "[2]", "value": "0.519 µM (active)"}, {"measurement": "AC50", "setting": "[3]", "value": "1.14 µM (active)"}, {"measurement": "IC50", "setting": "Protein Wnt-3a", "value": "0.338 µM (active)"}, {"measurement": "AC50", "setting": "INS1", "value": "1.41 µM (active)"}, {"measurement": "AC50", "setting": "[4]", "value": "1.98 µM (active)"}, {"measurement": "IC50", "setting": "[5]", "value": "2.58 µM (active)"}]}
{"smiles": "CN1CCSc2ccc(C(=O)Nc3ccc(Cl)cc3)cc21", "values": [{"measurement": "IC50", "setting": "[6]", "value": "> 1.11 µM (active)"}, {"measurement": "EC50", "setting": "[7]", "value": "0.148 µM (active)"}, {"measurement": "EC50", "setting": "H4", "value": "0.101 µM (active)"}, {"measurement": "EC50", "setting": "[8]", "value": "0.208 µM (active)"}, {"measurement": "IC50", "setting": "[9]", "value": "8.59 µM (active)"}, {"measurement": "EC50", "setting": "[10]", "value": "0.321 µM (active)"}, {"measurement": "IC50", "setting": "[11]", "value": "9.21 µM (active)"}, {"measurement": "EC50", "setting": "[12]", "value": "0.366 µM (active)"}]}
{"smiles": "CN1CCN(Cc2c(O)c(Cl)cc3c(-c4ccccc4)cc(=O)oc23)CC1", "values": [{"measurement": "EC50", "setting": "[13]", "value": "> 0.286 µM (active)"}, {"measurement": "EC50", "setting": "Kallikrein-7", "value": "68.3 µM (inactive)"}]}
{"smiles": "CCc1c(C)c2cc(Cl)c(O)c(CN(C)C)c2oc1=O", "values": [{"measurement": "AC50", "setting": "[14]", "value": "5.35 µM (active)"}]}
{"smiles": "Cc1c(Cl)ccc2sc(NC(=O)c3ccco3)nc12", "values": [{"measurement": "AC50", "setting": "[15]", "value": "17.4 µM (active)"}]}
{"smiles": "CN(CCCC(=O)O)c1ccc(N=Nc2ccc([N+](=O)[O-])cc2)cc1", "values": [{"measurement": "IC50", "setting": "Nonstructural protein 1", "value": "9.48 µM (active)"}, {"measurement": "IC50", "setting": "[16]", "value": "18.9 µM (active)"}]}
{"smiles": "CCCCCc1c(-c2ccccc2OC)ncn1CCc1ccccc1OC", "values": [{"measurement": "AC50", "setting": "Paired box protein Pax-8", "value": "24.9 µM (active)"}, {"measurement": "AC50", "setting": "A549", "value": "13.9 µM (active)"}, {"measurement": "AC50", "setting": "Vero", "value": "3.91 µM (active)"}]}
{"smiles": "COc1ccc2c3c([nH]c2c1)[C@H](CO)N(C(=O)Nc1cccc(F)c1)CC31CN(S(=O)(=O)c2ccccc2)C1", "values": [{"measurement": "AC50", "setting": "BHK-21", "value": "34.1 µM (active)"}]}
{"smiles": "CC(=O)N(C)C[C@@H]1Oc2cc(C#Cc3ccc(F)cc3)ccc2S(=O)(=O)N([C@H](C)CO)C[C@H]1C", "values": [{"measurement": "AbsAC35", "setting": "[17]", "value": 57.53, "unit": "µM"}, {"measurement": "AbsAC35", "setting": "[18]", "value": 109.84, "unit": "µM"}]}
{"smiles": "COCCNC(=O)C[C@H]1C=C[C@@H](NS(=O)(=O)c2ccc(C)cc2)[C@H](CO)O1", "values": [{"measurement": "AC50", "setting": "[19]", "value": "23.9 µM (active)"}, {"measurement": "AC50", "setting": "HeLa", "value": "19.9 µM (active)"}, {"measurement": "AC50", "setting": "HEK293", "value": "23.9 µM (active)"}]}
